# Structures can show the parent of a compound that is named as a salt.
# System: Female mice (Iffa Credo)
# Experiment: forced swimming test according to Porsolt et al. (immobility times over 4 minutes, 2nd to 6th minute)
# Format: in vivo
# Conditions: Mus musculus, ip, read-out: % inhibition (of the immobility times compared with control animals); for inhibition in vivo at 0.06 mg/kg: 0.06 mg/kg i.p.; for inhibition in vivo at 0.25 mg/kg: 0.25 mg/kg i.p.; for inhibition in vivo at 0.125 mg/kg: 0.125 mg/kg i.p.
# Procedure: Thus the products according to the invention were subjected to the forced swimming test according to Porsolt et al. (Archives Internationales de Pharmacodynamie, 1977, 229, 327-336). Female mice (Iffa Credo) weighing 22-24 g are immersed for a period of 6 minutes in a beaker containing 800 ml of water at 24°±1° C. The immobility times are measured over 4 minutes from the 2nd to the 6th minute. The results are expressed as the percentage inhibition of the immobility times of the treated animals compared with the control animals.
SMILES,inhibition in vivo at 0.06 mg/kg,inhibition in vivo at 0.25 mg/kg,inhibition in vivo at 0.125 mg/kg,inhibition in vivo at 1 mg/kg (1 mg/kg i.p.)
"CC1(C)Oc2ccc(C#N)cc2[C@@H](Nc2ccc(Cl)cc2)[C@@H]1O (relative stereo) [SR 44546, Trans-4-(4-chloroanilino)-6-cyano-2,2-dimethyl-3-hydroxychroman]",16%,44%,–,–
"COC(=O)c1ccccc1N[C@@H]1c2cc(C#N)ccc2OC(C)(C)[C@H]1O (relative stereo) [SR 44588, Trans-6-cyano-2,2-dimethyl-3-hydroxy-4-(2-methoxycarbonylanilino)chroman]",20%,–,27%,–
"CN(C)CCS[C@@H]1c2cc(C#N)ccc2OC(C)(C)[C@H]1O (relative stereo) [SR 44652, Trans-6-cyano-2,2-dimethyl-4-(2-dimethylaminoethylthio)-3-hydroxychroman hydrochloride]",25%,–,27%,–
"CC1(C)Oc2ccc(C#N)cc2[C@@H](NS(=O)(=O)c2ccccc2C(F)(F)F)[C@@H]1O (relative stereo) [SR 44665, Trans-6-cyano-2,2-dimethyl-3-hydroxy-4-(2-trifluoromethylbenzene-1-sulfonamido)chroman]",24%,–,–,–
"CN(C)S(=O)(=O)N[C@@H]1c2cc(C#N)ccc2OC(C)(C)[C@H]1O (relative stereo) [SR 44666, Trans-6-cyano-2,2-dimethyl-4-(N,N-dimethylsulfamoylamino)-3-hydroxychroman]",21%,–,–,23%
"CC1(C)Oc2ccc(C#N)cc2[C@@H](S(=O)(=O)C2CCCCC2)[C@@H]1O (relative stereo) [SR 44708, Trans-6-cyano-4-cyclohexylsulfonyl-2,2-dimethyl-3-hydroxychroman]",21%,37%,–,–
CC1(C)Oc2ccc(C#N)cc2[C@@H](Nc2ccccc2)[C@@H]1O (relative stereo) [SR 46142 A],40%,–,–,–
CC1(C)Oc2ccc(C#N)cc2[C@@H](Nc2ccc(F)cc2)[C@@H]1O (relative stereo) [SR 46143],27%,–,–,–
CC1(C)Oc2ccc(C#N)cc2[C@@H](Nc2ccc(C(F)(F)F)cc2)[C@@H]1O (relative stereo) [SR 46276],40%,–,–,–
"CC1(C)C=C(Sc2ccc(Cl)cc2)c2cc(C#N)ccc2O1 [SR 44554, 4-(4-Chlorophenylthio)-6-cyano-2,2-dimethyl-2H-chromene]",33%,–,–,–
